Experimental findings from PubChem BioAssay AID1259418 (Broad Institute, 2018) are described below.

Values joined by “and” are separate entries in the source; they are usually repeats but may differ in a detail not shown here. Equal entries are not always repeated. Records with an inconclusive call do not appear. Active and inactive are the calls of the source.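 How the source made its calls: active means fitted half-maximal concentration of signal decrease at or below twice the sample's top tested concentration; inconclusive means flat curve between -70 and -30 percent, or poor fit; inactive means flat within 30 percent, signal rise, or potency above limit.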 Some results are limits rather than exact numbers.

The test concerns the target T. gondii ME49Luc in IFN-y HeLa, luciferase, 72 h. In words: inhibitors of Toxoplasma growth in IFN-γ-primed HeLa – cell-based, ME49Luc, luciferase, 72 h, dose response (AID 1259418).
With `O=C(CC1N=C2c3ccccc3N=C(SCc3cccc(F)c3)N2C1=O)NC1CCCCC1` (stereo not drawn), the AC50 was 30 µM.

As to `Cc1oc(-c2cccc(Cl)c2)nc1CN1CCc2c(sc3c2CCCC3)C1c1ccccc1` (stereo not drawn), the AC50 was 6.85 µM.

As to `Cc1nc(OCC(=O)Nc2c(C)cccc2C)c2ccccc2n1`, the half-maximal activity concentration (AC50) was 28.8 µM.

For `Cc1ccc(S(=O)(=O)N2CCC3(CC2)NCCN=C3NCc2ccc(F)c(Cl)c2)c(C)c1`, the AC50 was 6.21 µM.

In the case of `Cc1ccc(NC(=O)N2CCN(Cc3nc(-c4cccc(Cl)c4)oc3C)CC2)cc1F`, the AC50 is 7.24 µM.

Turning to `CCc1nc(OCC(=O)Nc2cccc(Br)c2)c2ccccc2n1`, the AC50 was > 39 µM (inactive).

As for `O=S(=O)(c1ccc2c(c1)CCCC2)N1CCC2(CC1)NCCN=C2NC1CCCCCC1`, the AC50 is 9.95 µM.

`CN1C(=O)c2cc(NC(=O)Cc3cccs3)ccc2OC[C@@H]2O[C@H](CC(=O)NCC3CCCCC3)CC[C@@H]21`: the AC50 is > 39 µM (inactive).

With `CCc1nc(OCC(=O)Nc2ccc(Cl)cc2Cl)c2ccccc2n1`, the concentration at half-maximal activity (AC50) is 30 µM.

As for `CCOc1ccc(-c2nc3c(s2)CN(S(=O)(=O)c2cccc(F)c2)CC3)cc1`, the AC50 is > 39 µM (inactive).

As for `C=C(C)[C@@H]1CC[C@]2(C(=O)O)CC[C@]3(C)[C@H](CC[C@@H]4[C@@]5(C)CC[C@H](O)C(C)(C)[C@@H]5CC[C@]43C)[C@@H]12`, the half-maximal activity concentration (AC50) was 30 µM.

As for `O=C(Cc1ccncc1)N1C[C@@H]2N[C@H](C1)C2c1ccc(/C=C/c2ccccc2)cc1` (stereo partly drawn), the AC50 was 20.9 µM.

On to `CN1C(=O)c2cc(NC(=O)c3cccc(F)c3)ccc2OC[C@@H]2O[C@H](CC(=O)NCC3CCCCC3)CC[C@@H]21`, for which the AC50 was 18.6 µM and 22.1 µM.

Take `CN1C(=O)CCc2cc(NC(=O)Cc3ccc(Cl)cc3)ccc21`: the AC50 is 23.8 µM.

On to `CC(C)Oc1ccc(NC(=O)c2nc3c(n2C(C)C)CCN(C(=O)c2ccccc2)C3)cc1`, for which the AC50 was 10.6 µM.

For the compound `COc1ccc(-c2ccc([C@H]3[C@H]4CN(Cc5ccccc5)CC(=O)N4[C@H]3CO)cc2)cc1`, the AC50 was 21 µM.

Take `COc1ccc(CN2CCC(c3cc4c(ncn4C)c(-c4ccc(OC)cc4)n3)CC2)cc1`: the AC50 was 24.7 µM.

As for `CC[C@H]1CN2CCC1C[C@@H]2[C@H](O)c1ccnc2ccc(OC)cc12` (stereo partly drawn), the AC50 is 20 µM.

For the compound `CCOc1ccc(-c2nc(CN(c3cccc(OC)c3)S(=O)(=O)c3ccccc3)c(C)o2)cc1`, the half-maximal activity concentration (AC50) is 6.87 µM.

In the case of `COc1cccc(-c2nc3c(s2)CN(S(=O)(=O)c2cccc(F)c2)CC3)c1`, the AC50 was 11.3 µM.

`COCCN(C)C(=O)c1cc(-c2ccn(-c3ccc(OC)cc3)n2)n2ccccc12`: the AC50 is 22.3 µM.

As for `CCc1ccc(S(=O)(=O)N2CCC3(CC2)NCCN=C3NCc2ccc(F)cc2)cc1`, the concentration at half-maximal activity (AC50) was 6.64 µM.

For the compound `Cc1ccccc1-c1ccc([C@H]2[C@@H](CO)N3CCCCN(S(=O)(=O)Cc4ccccc4)C[C@H]23)cc1`, the half-maximal activity concentration (AC50) is 17.6 µM and 13.3 µM.

Regarding `COc1ccc(-c2nc(N3CCOCC3)c3ccccc3n2)cc1`, the AC50 was 36.1 µM.

For the compound `Cc1ccc(-c2coc(-c3ccc(NS(=O)(=O)c4ccc(CC(C)C)cc4)cc3)n2)c(C)c1`, the AC50 was > 39 µM (inactive).

On to `COc1ccccc1-c1noc(-c2nnn(Cc3nc(-c4ccccc4OC)oc3C)c2C)n1`, for which the AC50 is > 39 µM (inactive).

With `CCN1CCN(c2nc(-c3ccc(OC)cc3)nc3ccccc23)CC1`, the AC50 is 17.4 µM.

With `Cc1nc(OCC(=O)NCc2ccc3c(c2)OCO3)c2ccccc2n1`, the AC50 was 21.2 µM.

Consider `COc1ccccc1C(=O)N1CCC2(CC1)Nc1cc(F)ccc1-n1cccc12`, for which the AC50 was > 39 µM (inactive).

Turning to `COc1ccc(-c2nc(NCC3CCN(Cc4ccc(C)cc4)C3)c3ccccc3n2)cc1` (stereo not drawn), the concentration at half-maximal activity (AC50) is 13.5 µM.

In the case of `O=C(CCC1N=C2c3ccccc3N=C(SCc3cccc(F)c3)N2C1=O)NCc1cccs1` (stereo not drawn), the AC50 is 20.3 µM.

On to `Cc1nc2c(cnn2-c2ccccc2)c(=O)n1-c1cccc2ccccc12`, for which the AC50 is 1.32 µM.

As to `Cc1ccc(-c2csc(-c3cccn3CC(=O)NCCCN3CCCC(C)C3)n2)cc1` (stereo not drawn), the AC50 is 17.2 µM.

Turning to `CC(=O)N(C)C1(c2ccccc2)CCN(CCC[C@]2(c3ccc(Cl)c(Cl)c3)CCCN(C(=O)c3ccccc3)C2)CC1`, the AC50 is 12 µM.

On to `Cc1nc2ccccn2c1CN(C)Cc1cnn(-c2ccccc2)c1`, for which the AC50 is > 39 µM (inactive).

Take `Cc1cccc(C(=O)Nc2c(C(=O)N3CCN(c4ccccn4)CC3)[nH]c3ccccc23)c1`: the AC50 was > 39 µM (inactive).

Turning to `CN1C(=O)c2cc(NC(=O)c3cccc(F)c3)ccc2OC[C@H]2O[C@@H](CC(=O)NCC3CCCCC3)CC[C@@H]21`, the AC50 is 21.5 µM.

`O=C(CC1Nc2c3ccccc3nc(=S)n2C1=O)NCc1ccc2c(c1)OCO2` (stereo not drawn): the AC50 was > 39 µM (inactive).

For the compound `C/C=C/c1ccc([C@H]2[C@@H](CO)N3CCCCN(S(=O)(=O)c4ccc(OC)cc4)C[C@@H]23)cc1`, the AC50 was 18.4 µM.

For the compound `COc1ccccc1N(Cc1nc(-c2ccc(C)cc2)oc1C)S(=O)(=O)c1ccccc1C`, the AC50 is 15.1 µM.

As for `Cc1ccc(-c2coc(-c3ccc(NC(=O)Nc4cc(F)ccc4F)cc3)n2)cc1`, the AC50 is 27.7 µM.

`O=C(Nc1ccccc1F)N1CCCCN2[C@@H](CO)[C@@H](c3ccc(/C=C/c4ccccc4)cc3)[C@@H]2C1`: the AC50 was 22 µM.

Take `COc1ccc(-c2nc(NCCCN3CCN(C)CC3)c3ccccc3n2)cc1`: the AC50 was 14.4 µM.

`COc1ccc(CNC2=NCCNC23CCN(S(=O)(=O)c2ccc(C(C)C)cc2)CC3)cc1`: the AC50 was 19.9 µM.

Take `Cc1ccc(S(=O)(=O)Nc2ccc3c(c2)C(=O)N([C@H](C)CO)C[C@H](C)[C@H](CN(C)Cc2ccc(C(F)(F)F)cc2)O3)cc1`: the AC50 was 13.1 µM.

On to `O=C(CC1N=C2c3ccccc3N=C(SCc3ccc(Cl)cc3)N2C1=O)NCc1cccs1` (stereo not drawn), for which the AC50 is 29.4 µM.

Take `Cc1cc(C)c(S(=O)(=O)N2CCC[C@@H]2C(=O)NCCc2csc(C)n2)c(C)c1`: the AC50 is 31.9 µM.

On to `CCN1C(=O)CCc2cc(NC(=O)Cc3cccc(OC)c3)ccc21`, for which the AC50 is 23 µM.

For `O=S(=O)(c1cccs1)N1CCC2(CC1)NCCN=C2NCc1ccc(C(F)(F)F)cc1`, the AC50 is 23 µM.

`Cc1ccc(S(=O)(=O)N2CCC3(CC2)NCCN=C3NCc2ccccc2Cl)cc1C`: the AC50 was 12.2 µM.

`COc1cccc(NC(=O)COc2nc(C)nc3ccccc23)c1`: the AC50 was 36.7 µM.

For `COc1cccc(CNC2=NCCNC23CCN(S(=O)(=O)c2ccc(Cl)s2)CC3)c1`, the AC50 was 11.6 µM.

In the case of `COc1ccccc1N(Cc1nc(-c2cccc(C)c2)oc1C)S(=O)(=O)c1ccccc1`, the AC50 was 13.3 µM.

On to `O=C1CN(S(=O)(=O)c2cccc(F)c2)C[C@@H]2[C@@H](c3ccc(C4=CCCC4)cc3)[C@H](CO)N12`, for which the AC50 was > 39 µM (inactive).

With `O=C(Nc1cccc(F)c1)N1CCCCN2[C@H](C1)[C@@H](c1ccc(C#Cc3cccnc3)cc1)[C@@H]2CO`, the AC50 is 10.3 µM.

Consider `COc1ccccc1-c1ccc([C@H]2[C@H](CO)N[C@@H]2C#N)cc1`, for which the AC50 was 24 µM.

Turning to `CCCCCCC(C)(C)c1ccc(C2CC(O)CCC2CCCO)c(O)c1` (stereo not drawn), the AC50 is 8.47 µM.

As for `Fc1ccc(CSc2nc(NCc3ccc(Cl)cc3)c3ccccc3n2)cc1`, the AC50 was 16 µM.

For the compound `COc1cccc(-c2nc(Cn3c(=O)c4c(C)cc(C)nc4n(-c4ccccc4)c3=O)c(C)o2)c1OC`, the AC50 is > 39 µM (inactive).

For `COc1ccc(-c2nc(CN(c3ccccc3OC)S(=O)(=O)c3ccc(C)cc3)c(C)o2)cc1`, the AC50 was 5.3 µM.

As for `C(=C\c1ccc(C2[C@@H]3CN(Cc4ccc5c(c4)OCO5)C[C@H]2N3)cc1)/c1ccccc1` (stereo partly drawn), the AC50 was 13.2 µM.

`Cc1ccccc1-c1nc(CN2CCN(C(=O)Nc3ccc(F)cc3)CC2)c(C)o1`: the AC50 was > 39 µM (inactive).

`Cc1ccc2c(c1C)-n1cccc1C1(CCN(C(=O)c3ccccc3F)CC1)N2`: the AC50 is > 39 µM (inactive).

For the compound `CCc1ccc(S(=O)(=O)N2CCC3(CC2)NCCN=C3NCc2ccc(F)c(Cl)c2)cc1`, the concentration at half-maximal activity (AC50) is 4.73 µM.

Take `Cc1ccccc1-c1ccc([C@H]2[C@H](CO)N3CCCCN(S(=O)(=O)Cc4ccccc4)C[C@@H]23)cc1`: the AC50 is 16.5 µM.

In the case of `O=C(c1cnccn1)N1CC(=O)N2[C@H](C1)[C@H](c1ccc(/C=C/c3ccccc3)cc1)[C@@H]2CO`, the AC50 is 11.9 µM and 23.5 µM.

Take `O=C(Nc1ccc(F)cc1)N1CC(=O)N2[C@H](CO)[C@@H](c3ccc(-c4cccc(F)c4)cc3)[C@@H]2C1`: the AC50 was 19.9 µM.

On to `N#C[C@@H]1[C@@H](c2ccc(C#Cc3cccnc3)cc2)[C@@H](CO)N1C(=O)NC1CCCCC1`, for which the AC50 is 13.6 µM.

`Cc1ccc(-c2csc(-c3cccn3CC(=O)NCCN3CCC(C)CC3)n2)cc1`: the AC50 was 6.43 µM.

Consider `Clc1ccc(-c2nc(N3CCC(c4ccccc4)C3)c3ccccc3n2)cc1` (stereo not drawn), for which the AC50 is 32.4 µM.

With `O=C(CCC1N=C2c3ccccc3N=C(SCc3cccc(Cl)c3)N2C1=O)NCc1cccs1` (stereo not drawn), the AC50 was 5.48 µM.

Turning to `COc1ccccc1NC(=O)Nc1ccc(-c2nc(-c3ccc(C)cc3C)co2)cc1`, the AC50 was 31.9 µM.

For `O=S(=O)(c1ccc2c(c1)CCCC2)N1CCC2(CC1)NCCN=C2NCc1ccccc1`, the AC50 is 12.9 µM.

On to `N#C[C@H]1N[C@@H](CO)[C@@H]1c1ccc(C#CC2CCCCC2)cc1`, for which the half-maximal activity concentration (AC50) was 19.1 µM.

`COc1ccc(-c2nc3c(s2)CN(S(=O)(=O)c2ccccc2C)CC3)cc1`: the AC50 is 6.3 µM and 8.21 µM.

For `CCN1CCN(CCCNc2nc(-c3ccc(Cl)cc3)nc3ccccc23)CC1`, the AC50 is > 20 µM (inactive).

For `CCOc1ccc(-c2nc(CN(c3ccc(OC)cc3)S(=O)(=O)c3ccccc3C)c(C)o2)cc1`, the AC50 is 11.8 µM.

Take `COc1ccc(-c2nc(Nc3ccc(OC)cc3OC)c3ccccc3n2)cc1`: the AC50 was 13.3 µM.

Consider `CCN(CC)c1nc(-c2ccc(OC)cc2)nc2ccccc12`, for which the AC50 is 15.7 µM.

For the compound `Cc1cccc(C(=O)N2CCC3(CC2)Nc2cc(F)ccc2-n2cccc23)c1`, the AC50 is > 39 µM (inactive).

Regarding `Cc1nc(OCC(=O)Nc2cccc(F)c2)c2ccccc2n1`, the AC50 is 28.8 µM.

Consider `COC(=O)c1ccccc1NC(=O)COc1nc(C)nc2ccccc12`, for which the AC50 was 20.9 µM.

For the compound `C[C@@H]1CN([C@@H](C)CO)C(=O)Cc2cc(NC(=O)C3CCCCC3)ccc2O[C@@H]1CN(C)Cc1ccc(Cl)c(Cl)c1`, the AC50 was 15.1 µM and 5.01 µM.
